Target: Escherichia coli β-glucuronidase (EcGUS) (Escherichia coli, UniProt P05804)
Test: PNPG hydrolysis assay, Lineweaver-Burk kinetics
Assay type: biochemical

Sequence of Escherichia coli β-glucuronidase (EcGUS) (P05804 whole entry): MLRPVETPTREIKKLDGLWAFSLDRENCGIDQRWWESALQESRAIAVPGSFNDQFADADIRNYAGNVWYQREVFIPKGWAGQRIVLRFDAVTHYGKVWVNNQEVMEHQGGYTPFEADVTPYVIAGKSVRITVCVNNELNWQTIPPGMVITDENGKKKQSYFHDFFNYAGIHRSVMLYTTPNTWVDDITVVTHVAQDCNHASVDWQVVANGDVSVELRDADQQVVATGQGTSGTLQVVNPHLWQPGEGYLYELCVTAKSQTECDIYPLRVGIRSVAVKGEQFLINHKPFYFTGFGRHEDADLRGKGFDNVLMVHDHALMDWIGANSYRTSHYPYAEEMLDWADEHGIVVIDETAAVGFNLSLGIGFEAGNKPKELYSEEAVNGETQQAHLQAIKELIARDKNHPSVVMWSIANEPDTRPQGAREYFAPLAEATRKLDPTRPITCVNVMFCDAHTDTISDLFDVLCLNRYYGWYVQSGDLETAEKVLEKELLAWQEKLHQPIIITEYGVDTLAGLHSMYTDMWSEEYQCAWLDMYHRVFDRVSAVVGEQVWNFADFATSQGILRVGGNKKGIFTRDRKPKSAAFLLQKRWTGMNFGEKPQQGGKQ

Clc1ccc2c(c1)C(N1CCNCC1)=Nc1ccccc1O2 [AMX, amoxapine]
PNPG hydrolysis assay, Lineweaver-Burk kinetics: both AMX and E-9 acted as uncompetitive inhibitors against EcGUS

— article PMC11328603 (Journal of Enzyme Inhibition and Medicinal Chemistry, 2024)
